# Source: patent publication US20240174603A1 (Rappta Therapeutics Oy, priority 2021, published 2024)
# Test system: LNCaP cells
# Assay: LNCaP cell viability assay (MTS)
# Type: cell-based
# Details: Homo sapiens, LNCaP cell line, 48 hours
# Experimental: LNCaP cell line was used for the cell viability assay. LNCaP cells were plated in 96-well plates at a density of 5000 cells per well. After 24 hours of plating, the cells were treated with increasing doses of compound (e.g., compounds 1-269) ranging from 1 μM to 80 μM. Relative cell numbers were analyzed after 48 hours using 3-(4,5-dimethylthiazol-2-yl)-5-(3-carboxymethoxyphenyl)-2-(4-sulfophenyl)-2H-tetrazolium (MTS) assay (Promega) according to the manufacturer's instructions.
# The cell viability data was analyzed with GraphPad Prism software. The values were log transformed and analyzed with non-linear regression (curve-fit) using log(inhibitor) vs. response-variable slope (four parameters) and constraining the bottom to equal zero. Unless otherwise indicated, the GI50 values provided in Table 113 correspond to the LNCaP cell viability assays.
row,Compound,GI50 [µM]
1,"CN(C)CC(NS(=O)(=O)c1ccc(OC(F)(F)F)cc1)c1ccc(C(F)(F)F)cc1 (stereo not drawn) [Compound 219, N-(2-(dimethylamino)-1-(4-(trifluoromethyl)phenyl)ethyl)-4-(trifluoromethoxy)benzenesulfonamide]",43.6
2,"CN(C)CC(NS(=O)(=O)c1cccc(OC(F)(F)F)c1[N+](=O)[O-])c1ccc(Cl)c(Cl)c1 (stereo not drawn) [Compound 223, N-(1-(3,4-dichlorophenyl)-2-(dimethylamino)ethyl)-2-nitro-3-(trifluoromethoxy)benzenesulfonamide]",57.4
3,"CN(C)CC(NS(=O)(=O)c1ccc(OC(F)(F)F)nc1)c1ccc(Cl)c(Cl)c1 (stereo not drawn) [Compound 157, N-(1-(3,4-dichlorophenyl)-2-(dimethylamino)ethyl)-6-(trifluoromethoxy)pyridine-3-sulfonamide]",17.7

# Same assay, conditions: Homo sapiens, LNCaP, 48 h, LNCaP cell line
row,GI50 [µM],Compound
1,64,"CS(=O)(=O)c1cc(CNS(=O)(=O)c2ccc(OC(F)(F)F)cc2)cc(C(F)(F)F)c1 [Compound 82, N-(3-(methylsulfonyl)-5-(trifluoromethyl)benzyl)-4-(trifluoromethoxy)benzenesulfonamide]"
2,51.9,"CCOC(=O)C[C@@H](NS(=O)(=O)c1ccc(OC(F)(F)F)cc1)c1ccccc1Cl [Compound 14, Ethyl (R)-3-(2-chlorophenyl)-3-((4-(trifluoromethoxy)phenyl)sulfonamido)propanoate]"
3,21.3,"CN(C)CC(NS(=O)(=O)c1ccc(OC(F)(F)F)cc1N)c1ccc(Cl)c(Cl)c1 (stereo not drawn) [Compound 155, 2-amino-N-(1-(3,4-dichlorophenyl)-2-(dimethylamino)ethyl)-4-(trifluoromethoxy)benzenesulfonamide]"
4,65.3,"CN(C)C(=O)[C@H](Cc1ccc(Cl)c(Cl)c1)NS(=O)(=O)c1ccc(OC(F)(F)F)cc1 [Compound 249, (S)-3-(3,4-dichlorophenyl)-N,N-dimethyl-2-((4-(trifluoromethoxy)phenyl)sulfonamido)propenamide]"
5,23.4,"CN1CCN(CC(NS(=O)(=O)c2ccc(OC(F)(F)F)cc2)c2ccc(Cl)cc2)CC1 (stereo not drawn) [Compound 184, N-(1-(4-chlorophenyl)-2-(4-methylpiperazin-1-yl)ethyl)-4-(trifluoromethoxy)benzenesulfonamide]"
6,11.3,"CN1CCN(CC(NS(=O)(=O)c2ccc(Oc3ccc(C(F)(F)F)cc3)cc2)c2ccc(Cl)cc2)CC1 (stereo not drawn) [Compound 235, N-(1-(4-chlorophenyl)-2-(4-methylpiperazin-1-yl)ethyl)-4-(4-(trifluoromethyl)phenoxy)benzenesulfonamide]"
7,8.18,"CN(C)CC(NS(=O)(=O)c1ccc(C2=CCOCC2)cc1)c1ccc(Cl)c(Cl)c1 (stereo not drawn) [Compound 216, N-(1-(3,4-dichlorophenyl)-2-(dimethylamino)ethyl)-4-(3,6-dihydro-2H-pyran-4-yl)benzenesulfonamide]"
8,48.5,"Cc1cccc(C(CN(C)C)NS(=O)(=O)c2ccc(OC(F)(F)F)cc2)c1 (stereo not drawn) [Compound 119, N-(2-(dimethylamino)-1-(m-tolyl)ethyl)-4-(trifluoromethoxy)benzenesulfonamide]"
9,25.4,"CN(C)CC(NS(=O)(=O)c1ccc(C(F)(F)F)cc1)c1ccc(Cl)c(Cl)c1 (stereo not drawn) [Compound 161, N-(1-(3,4-dichlorophenyl)-2-(dimethylamino)ethyl)-4-(trifluoromethyl)benzenesulfonamide]"
10,15,"CN1CCN(CC(NS(=O)(=O)c2ccc(Oc3ccc(F)cc3)cc2)c2ccc(Cl)c(Cl)c2)CC1 (stereo not drawn) [Compound 269, N-(1-(3,4-dichlorophenyl)-2-(4-methylpiperazin-1-yl)ethyl)-4-(4-fluorophenoxy)benzenesulfonamide]"
11,43.1,COC(=O)C(C)C(NS(=O)(=O)c1ccc(OC(F)(F)F)cc1)c1ccccc1 (stereo not drawn) [Compound 23]
12,24.9,"CN=S(=O)(NC(CN(C)C)c1ccc(Cl)c(Cl)c1)c1ccc(OC(F)(F)F)cc1 (stereo not drawn) [Compound 126, N-(1-(3,4-dichlorophenyl)-2-(dimethylamino)ethyl)-N′-methyl-4-(trifluoromethoxy)benzenesulfonimidamide]"
13,66,"COCCC1(CNS(=O)(=O)c2ccc(OC(F)(F)F)cc2)CCCCC1 [Compound 53, N-((1-(2-methoxyethyl)cyclohexyl)methyl)-4-(trifluoromethoxy)benzenesulfonamide]"
14,19.6,"CN(C)CC(NS(=O)(=O)c1ccc(Oc2ccc(C(F)(F)F)cc2)cc1)c1cccc(C(F)(F)F)c1 (stereo not drawn) [Compound 193, N-(2-(dimethylamino)-1-(3-(trifluoromethyl)phenyl)ethyl)-4-(4-(trifluoromethyl)phenoxy)benzenesulfonamide]"
15,30,"Cc1ccc(CNS(=O)(=O)c2ccc(OC(F)(F)F)cc2)c(OCC2CC2)c1 [Compound 75, N-(2-(cyclopropylmethoxy)-4-methylbenzyl)-4-(trifluoromethoxy)benzenesulfonamide]"
16,55,"O=S(=O)(NCCC(c1ccccc1)C(F)(F)F)c1ccc(OC(F)(F)F)cc1 (stereo not drawn) [Compound 51, N-(4,4,4-trifluoro-3-phenylbutyl)-4-(trifluoromethoxy)benzenesulfonamide]"
17,24.5,"O=S(=O)(NC(CN1CCCC1)c1ccc(Cl)c(Cl)c1)c1ccc(OC(F)(F)F)cc1 (stereo not drawn) [Compound 182, N-(1-(3,4-dichlorophenyl)-2-(pyrrolidin-1-yl)ethyl)-4-(trifluoromethoxy)benzenesulfonamide]"
18,12.5,"CN(C)CC(NS(=O)(=O)c1ccc(OC2CCCC2)cc1)c1ccc(Cl)c(Cl)c1 (stereo not drawn) [Compound 210, 4-(cyclopentyloxy)-N-(1-(3,4-dichlorophenyl)-2-(dimethylamino)ethyl)benzenesulfonamide]"
19,49.6,"CCOC(=O)C(Cc1cccc(Cl)c1)NS(=O)(=O)c1ccc(OC(F)(F)F)cc1 (stereo not drawn) [Compound 15, Ethyl 3-(3-chlorophenyl)-2-((4-(trifluoromethoxy)phenyl)sulfonamido)propanoate]"
20,11.6,"O=S(=O)(NC(CN1CCNCC1)c1ccc(Cl)cc1)c1ccc(OC(F)(F)F)cc1 (stereo not drawn) [Compound 257, N-(1-(4-chlorophenyl)-2-(piperazin-1-yl)ethyl)-4-(trifluoromethoxy)benzenesulfonamide]"
21,43.7,"CN(C)CC(NS(=O)(=O)c1ccc(-c2ccccn2)cc1)c1ccc(Cl)c(Cl)c1 (stereo not drawn) [Compound 218, N-(1-(3,4-dichlorophenyl)-2-(dimethylamino)ethyl)-4-(pyridin-2-yl)benzenesulfonamide]"
22,50.9,"COC(c1ccccc1Cl)C(C)NS(=O)(=O)c1ccc(OC(F)(F)F)cc1 (stereo not drawn) [Compound 20, N-(1-(2-chlorophenyl)-1-methoxypropan-2-yl)-4-(trifluoromethoxy)benzenesulfonamide]"
23,21.9,"CN(C)CC(NS(=O)(=O)c1ccc(Oc2ccccc2C(F)(F)F)cc1)c1ccc(Cl)c(Cl)c1 (stereo not drawn) [Compound 238, N-(1-(3,4-dichlorophenyl)-2-(dimethylamino)ethyl)-4-(2-(trifluoromethyl)phenoxy)benzenesulfonamide]"
24,25,"CCOC(=O)CC(NS(=O)(=O)c1ccc(OC(F)(F)F)cc1)c1cccc(C(F)(F)F)c1 (stereo not drawn) [Compound 94, Ethyl 3-((4-(trifluoromethoxy)phenyl)sulfonamido)-3-(3-(trifluoromethyl)phenyl)propanoate]"
25,25,"CC(C)CC(NS(=O)(=O)c1ccc(OC(F)(F)F)cc1)C(=O)Nc1nccs1 (stereo not drawn) [Compound 109, 4-methyl-N-(thiazol-2-yl)-2-((4-(trifluoromethoxy)phenyl)sulfonamido)pentanamide]"
26,37,"CC(NS(=O)(=O)c1ccc(OC(F)(F)F)cc1)C(NC(=O)OC(C)(C)C)c1ccccc1 (stereo not drawn) [Compound 105, Tert-butyl (1-phenyl-2-((4-(trifluoromethoxy)phenyl)sulfonamido)propyl)carbamate]"
27,30.9,"CC(O)COc1ccccc1CNS(=O)(=O)c1ccc(OC(F)(F)F)cc1 (stereo not drawn) [Compound 11, N-(2-(2-hydroxypropoxy)benzyl)-4-(trifluoromethoxy)benzenesulfonamide]"
28,14.4,"CCCc1ccc(S(=O)(=O)NC(CN(C)C)c2ccc(Cl)c(Cl)c2)cc1 (single isomer, unassigned) [Compound 199, N-(1-(3,4-dichlorophenyl)-2-(dimethylamino)ethyl)-4-propylbenzenesulfonamide]"
29,72,"CCOC(=O)[C@@H](Cc1ccc(OC)cc1)NS(=O)(=O)c1ccc(OC(F)(F)F)cc1 [Compound 43, Ethyl (R)-3-(4-methoxyphenyl)-2-((4-(trifluoromethoxy)phenyl)sulfonamido)propanoate]"
30,51.7,"O=S(=O)(NCC1(c2ccc(Cl)c(Cl)c2)CCCC1)c1ccc(OC(F)(F)F)cc1 [Compound 243, N-((1-(3,4-dichlorophenyl)cyclopentyl)methyl)-4-(trifluoromethoxy)benzenesulfonamide]"

# Same assay, conditions: LNCaP cell line, 48 hours
row,GI50 [µM],Compound
1,15.8,"CN(C)CC(NS(=O)(=O)c1ccc(Oc2ccccc2)cc1)c1ccc(Cl)c(Cl)c1 (single isomer, unassigned) [Compound 171, N-(1-(3,4-dichlorophenyl)-2-(dimethylamino)ethyl)-4-phenoxybenzenesulfonamide]"
2,23.9,"CN(C)CC(NS(=O)(=O)c1ccc(OC(F)(F)F)cc1)c1ccc(Cl)c(Cl)c1 (single isomer, unassigned) [Compound 149, N-(1-(3,4-dichlorophenyl)-2-(dimethylamino)ethyl)-4-(trifluoromethoxy)benzenesulfonamide]"
3,9.79,"O=S(=O)(NC(CN1CC2CC1CN2)c1ccc(Cl)c(Cl)c1)c1ccc(OC(F)(F)F)cc1 (single isomer, unassigned) [Compound 261b, N-(2-(2,5-diazabicyclo[2.2.1]heptan-2-yl)-1-(3,4-dichlorophenyl)ethyl)-4-(trifluoromethoxy)benzenesulfonamide]"
